One molecule from PubChem BioAssay (NCI) can be followed below.

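Cultured in 96-well plates, cells were exposed to test compound for 48 hours across five concentrations. TGI marks complete inhibition of growth.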

In one experiment the test system is SN12K1 renal. In words: NCI tumour cell line growth inhibition, 48 h.
In the next experiment the test system is P388/ADR leukemia. Nature of the experiment: NCI tumour cell line growth inhibition, 48 h.

`CN(CO)c1nc(N(C)CO)nc(N(C)CO)n1`: the TGI with SN12K1 renal amounted to 14.1 µM; in the experiment on P388/ADR leukemia it was 69.1 µM.
